US20250059139A1, “COMPOUNDS FOR TREATMENT OF CANCER” (THE JOHNS HOPKINS UNIVERSITY, priority 2021, published 2025)

How the values were obtained:
thymus = experiment: AHR agonist induced thymus regression in FVB male mice; format: in vivo, mouse
Procedure: To evaluate AHR agonist induced thymus regression, groups of five 4-week old FVB male mice from Jackson Laboratory were treated with either vehicle, Linomide, TasQ, or its analogs daily by orally gavage for 2 weeks and then the thymus removed and weighted.
(§1) Oral Drug treatment. TasQ at the indicated dose was initially dissolved with equal molar 1 N sodium hydroxide. This solution was diluted with sterile water and the mixture stirred for 1 hr. The pH was then adjusted with 1 N HCl to 8.9 and 200 μL given daily via oral gavage.
This means that in the clinical setting, dose-escalation above 1 mg/d of TasQ as needed to reach this >2 μM blood level for optimal anti-cancer efficacy will also enhance unwanted off-target AHR induction. Therefore, a medicinal chemical approach was undertaken to identify third generation quinoline-3-carboxamide analogs with increased HDAC4 inhibition, but with reduced AHR agonism. The approach taken is based upon the earlier SPR analysis documenting that TasQ linked to the surface chip via its aniline-N is a potent binder of HDAC4. Thus, a series of quinoline-3-carboxamide analogs were synthesized focusing upon adduct changes at the aniline-N. These analogs were synthesized as described in Example 1, and were initially screened for their AHR agonist activity using the in vitro human cell-based ARE-driven luciferase reporter gene assay (Table 3).

[1] = tested on: CWR22-RH human prostate cancer PDXs; experiment: In vivo growth of CWR22-RH xenografts in castrate NSG male mice; details: castrate mice treated orally over a 3 week period, 10 mg/kg/d, n = 5/group
Excerpt: Prostate Cancer Models. The source, history, and characteristics of the human prostate cancer cell lines and PDXs used, as well as cell culture conditions for their in vitro maintenance and the in vivo protocol for xenograft growth in triple immune-deficient NSG (i.e. NOD.Cg-PrkdcScidIl2rgtmlWji/Szj), adult (>8 week old) male mice obtained from the Sidney Kimmel Comprehensive Cancer Center (SKCCC) Animal Core Facility are described previously (Isaacs 2013; Brennen et al. JCI Insight. 2021, 6(8):e146827; Zhu et al. Oncogene 2020, 39(45): 6935-6949). Similar information concerning the TRAMP-C2 and B6CaP mouse prostate cancers originating in a C57BL/6J male mice are described previously (Foster et al. Cancer Res. 1997, 57: 3325-3330; Simons et al. Oncotarget. 2019, 10(64):6845-6854). In vitro growth curves were determined as described (Isaacs 2013). In vivo growth response to oral daily TasQ (10 mg/kg/d) of TRAMP-C2 mouse prostate cancers was evaluated in C57BL/6J syngeneic wild type vs. NOX-2 vs. iNOS null male mice obtained from Jackson Laboratory (Bar Harbor, ME). Growth response to oral daily TasQ (10 mg/kg/d) of TRAMP-C2 and B6CaP mouse prostate cancers was also evaluated in S100A9 null C57BL′6J male mice obtained from Dmitry Gabrilovich (Wistar Institute). All lines were mycoplasma negative using the MycoSensor PCR Assay kit (Agilent Technologies) and genetically authenticated within the last 6 months using short tandem repeat profiling conducted by the Johns Hopkins Genetic Resource Core Facility. In vitro growth curves were determined as described (Isaacs 2013). Growth response to daily oral TasQ vs. ESATA-20 (both at 10 mg/kg/d) of Myc-CaP-CR mouse prostate cancer was evaluated in syngeneic FVB/NJ castrate male mice from Jackson Laboratory. Animal studies were conducted according to animal protocols approved by Johns Hopkins Animal Care and Use Committee. Tumor volume measurements were as described previously (id.). In vivo experiments were repeated multiple independent times for each model used with 3-5 mice per treatment grouping.
as §1
Due to these combined effects, maximal growth inhibition of CWR22-RH, a castration-resistant prostate cancer patient-derived xenograft (PDX), is obtained as maintenance therapy with oral daily dosing of ≥5 mg/kg/d (FIG. 1). […] Previous studies documented that in vitro treatment of human prostate cancer cells (LNCaP) with 1-10 μM TasQ rapidly (i.e., ≤1 day) induces the transcription of a series of AHR target genes (e.g., Cyp1a1, Cyp1b1, AHRR, TPARP, GDF15) (Olsson 2010). […]

[2] = tested on: LvCaP-3 human prostate cancer PDXs; experiment: In vivo growth of LvCaP-3 xenografts in castrate hosts; details: daily oral 10 mg/kg
Excerpt: Prostate Cancer Models. The source, history, and characteristics of the human prostate cancer cell lines and PDXs used, as well as cell culture conditions for their in vitro maintenance and the in vivo protocol for xenograft growth in triple immune-deficient NSG (i.e. NOD.Cg-PrkdcScidIl2rgtmlWji/Szj), adult (>8 week old) male mice obtained from the Sidney Kimmel Comprehensive Cancer Center (SKCCC) Animal Core Facility are described previously (Isaacs 2013; Brennen et al. JCI Insight. 2021, 6(8):e146827; Zhu et al. Oncogene 2020, 39(45): 6935-6949). […] In vitro growth curves were determined as described (Isaacs 2013). In vivo growth response to oral daily TasQ (10 mg/kg/d) of TRAMP-C2 mouse prostate cancers was evaluated in C57BL/6J syngeneic wild type vs. NOX-2 vs. iNOS null male mice obtained from Jackson Laboratory (Bar Harbor, ME). Growth response to oral daily TasQ (10 mg/kg/d) of TRAMP-C2 and B6CaP mouse prostate cancers was also evaluated in S100A9 null C57BL′6J male mice obtained from Dmitry Gabrilovich (Wistar Institute). […] In vitro growth curves were determined as described (Isaacs 2013). Growth response to daily oral TasQ vs. ESATA-20 (both at 10 mg/kg/d) of Myc-CaP-CR mouse prostate cancer was evaluated in syngeneic FVB/NJ castrate male mice from Jackson Laboratory. […]

fl-HDAC4 = target: T1, fl-HDAC4 (Homo sapiens, UniProt P56524); experiment: HDAC4 enzymatic assay with Lys(Tfa)-AMC substrate; format: biochemical
T1 construct: Full-length (fl) [A.A. 1-1082] recombinant human histone deacetylase 4 (rhHDAC4) protein; FLAG (N); GST (given as 'with or without'); made in house; host or cells: HEK293-T
Procedure: HDAC4 Enzymatic Assay. HDAC4 activity of the various recombinant forms used through these studies was assayed using the small non-protein Lys(Tfa)-AMC as described previously (Bottomley et al. J. Biol. Chem. 2008, 283:26694-26704). The specificity of this assay is documented via its inhibition by a small molecule trifluoroacetylthiophene-trifluoromethylketone derivative (TFT-PIP) described previously (id.).
Thus, TasQ's inhibition of HDAC4/NCoR1 formation involves only its binding to HDAC4. To resolve whether such TasQ binding involves the ZCD vs. ZRD in HDAC4, we took advantage of the fact that while HDAC4 has only marginal deacetylase activity against acetylated lysine-containing proteins, it can deacetylate a small non-protein trifluoroacetamide substrate (a.k.a., Lys(Tfa)-AMC). This reaction is inhibited by a small molecule trifluoroacetylthiophene-trifluoromethylketone derivative [a.k.a., TFT-PIP (FIG. 16)] due to its binding to the catalytic Zn^2+ in the ZCD, which locks the ZRD in the open conformation (Bottomley 2008).

T1 sequence (P56524 whole entry): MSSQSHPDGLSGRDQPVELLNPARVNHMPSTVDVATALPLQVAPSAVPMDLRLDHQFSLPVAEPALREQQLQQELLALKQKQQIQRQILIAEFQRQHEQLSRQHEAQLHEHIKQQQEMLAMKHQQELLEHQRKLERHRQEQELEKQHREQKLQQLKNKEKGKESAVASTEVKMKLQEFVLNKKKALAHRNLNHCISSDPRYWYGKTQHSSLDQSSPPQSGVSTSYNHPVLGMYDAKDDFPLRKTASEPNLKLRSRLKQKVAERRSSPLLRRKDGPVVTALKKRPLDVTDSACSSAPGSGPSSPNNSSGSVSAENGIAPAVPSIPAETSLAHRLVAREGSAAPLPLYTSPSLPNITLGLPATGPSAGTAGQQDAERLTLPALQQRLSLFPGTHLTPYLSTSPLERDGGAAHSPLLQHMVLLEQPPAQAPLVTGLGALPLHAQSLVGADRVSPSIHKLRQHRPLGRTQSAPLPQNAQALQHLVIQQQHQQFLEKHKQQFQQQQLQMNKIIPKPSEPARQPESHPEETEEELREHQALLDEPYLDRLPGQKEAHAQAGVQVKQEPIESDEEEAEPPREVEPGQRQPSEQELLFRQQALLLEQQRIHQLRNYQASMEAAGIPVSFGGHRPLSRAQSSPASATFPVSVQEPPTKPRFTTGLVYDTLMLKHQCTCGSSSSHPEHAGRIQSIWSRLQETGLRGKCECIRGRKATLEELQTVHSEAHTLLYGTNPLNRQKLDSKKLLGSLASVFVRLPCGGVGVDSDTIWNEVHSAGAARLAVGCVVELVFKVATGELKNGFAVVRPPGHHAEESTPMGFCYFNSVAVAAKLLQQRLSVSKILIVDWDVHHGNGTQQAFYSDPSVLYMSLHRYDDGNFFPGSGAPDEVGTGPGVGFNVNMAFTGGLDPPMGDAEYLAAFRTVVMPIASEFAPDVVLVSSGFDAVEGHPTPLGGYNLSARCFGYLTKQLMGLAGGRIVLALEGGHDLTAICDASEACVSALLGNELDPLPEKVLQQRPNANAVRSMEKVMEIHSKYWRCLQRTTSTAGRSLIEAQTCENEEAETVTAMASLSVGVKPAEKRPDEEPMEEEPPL

Compound	thymus weight (thymus; 10 mg/kg/d oral for 14 days) [mg]	Thymus Regression (% decrease weight +/− SD) (thymus; mice treated orally for 2 weeks, 10 mg/kg/d, n = 5/group)	CWR22-RH Tumor Growth (% inhibition +/− SD) [1] [%]	inhibition of growth of LvCaP-3 xenografts at the end of study [2]	effect on enzymatic activity of fl-HDAC4 (fl-HDAC4)
c1ccc2c(c1)cc1ccc3cccc4ccc2c1c34 [Benzo[α]pyrene, benzo[a]pyrene]	27 ± 8	51 +/− 7%	<10	completely lacks therapeutic efficacy	
O=C(c1ccc(C(=O)C(F)(F)F)s1)N1CCn2c(-c3ccccc3)cnc2C1 [TFT-PIP]					inhibited
